≈ marks a conversion by molar mass, not a printed value. Read-outs that look alike come from different tables or passages of the source. Starred links: 1 amine or outer side, 2 acyl side, 3 side chain; linkers in the order of their positions; H or OH if unused. Positions of bridges follow the written chain, without caps; N, C: chain ends. Non-standard residues stand in square brackets, D forms with d. Residues, ends and D or L forms follow the SMILES beside them. *: point of attachment. X5 = CN(C(=O)CCC(=O)[*:3])[C@@H](CS[*:2])C(=O)[*:1]; X3 = CN(CCCCC(=O)N[C@@H](CS[*:2])C(=O)[*:1])[*:3]; Trp(7-Me) = Cc1cccc2c(C[C@H](N)C(=O)O)c[nH]c12; X1 = O=C(CCCCN[*:3])N[C@@H](CS[*:2])C(=O)[*:1]; αMeLys(Me2) = CN(C)CCCC[C@](C)(N)C(=O)O; 2Nal = N[C@@H](Cc1ccc2ccccc2c1)C(=O)O; Palmitoyl = CCCCCCCCCCCCCCCC(=O)*; 3Pal = N[C@@H](Cc1cccnc1)C(=O)O; Lys(Me) = CNCCCC[C@H](N)C(=O)O; Suc = O=C(CCC(=O)[*:2])[*:1]; αMeK = C[C@](N)(CCCCN)C(=O)O; Thp = NC1(C(=O)O)CCOCC1; Me2NCH2CH2 = CN(C)CC*; Aib = CC(C)(N)C(=O)O; Ava = NCCCCC(=O)O; Sar = CNCC(=O)O
Columns and labels:
Pepsin = system: T1, Pepsin; test: Protease stability in simulated gastric fluid (Pepsin-SGF, FaSSGF); assay type: in vitro ADME; conditions: simulated gastric fluid with pepsin (Pepsin-SGF), 60 min, 1 μM peptide, 37° C., read-out: FaSSGF 60 (min), remaining percent of peptide
T1 construct: purchased Merck Millipore
Method in brief: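 LCMS/MS peak areas, normalised to the time-0 sample as 100%, give percent remaining. Conditions: 37° C incubation of 1 μM final peptide in simulated gastric fluid with pepsin; ethanol/0.1% HCOOH quench at 0, 60, 120, 240 min.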

[1] = biological target: T2, human interleukin-23 receptor (recombinant human IL-23R-Fc chimera) (Homo sapiens, UniProt Q5VWK5); test: Human ELISA IL23/IL23R (assay for specific human IL23R antagonists); assay type: binding; conditions: Table 10; read-out: Human ELISA IL23/IL23R IC50
T2 construct: Fc (IgG Fc fusion)
Method in brief: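 Competition format: peptide dilutions compete for IL23R-Fc chimera (0.1 μg/ml final, 60 min, room temperature) binding to immobilized human IL23 coated at […] overnight at 4 °C. Read-out is fluorogenic HRP signal from goat anti-hu-IgG1 detecting captured receptor.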

Pancreatin = test: Protease stability in simulated intestinal fluid (Pancreatin-SIF, FaSSIF); assay type: in vitro ADME; conditions: 1 μM peptide, 37° C.; for remaining at 1 h, 1 µM: 60 min, read-out: FaSSIF 60 (min), remaining percent of peptide; for remaining at 2 h, 1 µM: 120 min, read-out: FaSSIF 120 (min), remaining percent of peptide; for remaining at 4 h, 1 µM: 240 min, read-out: FaSSIF 240 (min), remaining percent of peptide
Method in brief: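 LC-MS/MS peak areas at 0, 60, 120 and 240 min, normalised to time 0 as 100%, give percent remaining. Reactions used 1 μM final peptide at 37° C in pancreatin-SIF (1 mg pancreatin in 10 mL SIF concentrate) and were stopped with ethanol containing 0.1% HCOOH.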

[2] = Solubility testing of peptides at different pH; assay type: physicochemical; conditions: target concentration 1 mg/ml, 2 hours agitation
Method in brief: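 Four buffers were used: 50 mM HCl pH 1.2 and 50 mM phosphate at pH 6.5, 7.4 and 9.0, each receiving dried-down compound at a 1 mg/mL target. After 2 h gentle shaking and 0.45 μm filtration, UV peak areas were compared with a DMSO standard curve of known concentration, allowing for extinction coefficients.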

[3] = system: IL-23 induced STAT3 signaling in HEK-Blue™ IL-23 cells; test: IL-23 induced STAT3 signaling in HEK-Blue IL-23 cells (SEAP reporter); assay type: cell-based; conditions: human IL23 0.25 ng/ml, read-out: pSTAT3
Method in brief: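 Secreted SEAP, read at OD 620-655 nm after 45 min QUANTI-Blue development, reports STAT3 activation. Beforehand, cells were exposed to peptide dilutions for 60 min at 37 °C and then to 0.25 ng/ml final human IL-23 overnight, at 10,000 cells/well.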

[4] = 50 mM HCl buffer, 50 mM HCl pH 1.2, read-out: Solubility Buffer pH 1.2
[5] = 50 mM phosphate buffer pH 6.5, read-out: Solubility Buffer pH 6.5
[6] = 50 mM phosphate buffer pH 7.4, read-out: Solubility Buffer pH 7.4

Question: What does the source list for `CC(=O)NCCCC[C@@H]1NC(=O)[C@H](Cc2c[nH]c3c(C)cccc23)NC(=O)[C@@H](NC(C)=O)CCCCNC(=O)[C@@H]2CSSC[C@H](NC1=O)C(=O)N[C@@H](Cc1ccc(OCCN(C)C)cc1)C(=O)N[C@@H](Cc1ccc3ccccc3c1)C(=O)NC1(CCOCC1)C(=O)N[C@H](C(=O)N[C@@H](CC(N)=O)C(=O)N[C@@H](Cc1cccnc1)C(=O)N(C)CC(N)=O)CCCCN(C)C(=O)CCC(=O)N2C` [compound 74] (Ac-K[Trp(7-Me)]K(Ac)CY(Me2NCH2CH2)[2Nal][Thp][Lys(Me)]N[3Pal][Sar]-NH2; linker 1-4-8 via X5)?
Answer: remaining at 1 h, 1 µM (Pepsin): 92%; IC50 [1]: 0.54 nM; remaining at 1 h, 1 µM (Pancreatin): 87%; remaining at 2 h, 1 µM (Pancreatin): 84%; remaining at 4 h, 1 µM (Pancreatin): 78%; solubility at 2 h [2, 4]: ≥ 1390 µg/mL; solubility at 2 h [2, 5]: ≥ 980 µg/mL; solubility at 2 h [2, 6]: 330 µg/mL (≈ 174 µM); solubility at 2 h ([2]; 50 mM phosphate buffer pH 9.0, read-out: Solubility Buffer pH 9.0): 180 µg/mL (≈ 95.1 µM); IC50 [3]: 0.12 nM

Question: For `CC(=O)NCCCC[C@@H]1NC(=O)[C@H](Cc2c[nH]c3c(C)cccc23)NC(=O)[C@@H](NC(C)=O)CCCCNC(=O)[C@@H]2CSSC[C@H](NC1=O)C(=O)N[C@@H](Cc1ccc(OCCN(C)C)cc1)C(=O)N[C@@H](Cc1ccc3ccccc3c1)C(=O)NC(C)(C)C(=O)N[C@H](C(=O)N[C@@H](CC(N)=O)C(=O)N[C@@H](Cc1c[nH]cn1)C(N)=O)CCC(=O)N(C)CCCCC(=O)N2` [compound 60] (Ac-K[Trp(7-Me)]K(Ac)CY(Me2NCH2CH2)[2Nal][Aib]ENH-NH2; linker 1-4-8 via X3), which remaining at 1 h, 1 µM (Pepsin) is on record?
Answer: 68%

Question: And the IC50 [1]?
Answer: 0.21 nM

Question: And the remaining at 1 h, 1 µM (Pancreatin)?
Answer: 99%

Question: And the remaining at 2 h, 1 µM (Pancreatin)?
Answer: 91%

Question: And the remaining at 4 h, 1 µM (Pancreatin)?
Answer: 91%

Question: And the solubility at 2 h [2, 4]?
Answer: ≥ 1020 µg/mL

Question: And the solubility at 2 h [2, 5]?
Answer: ≥ 1000 µg/mL

Question: What about the solubility at 2 h [2, 6] of the same compound?
Answer: ≥ 930 µg/mL

Question: And the IC50 [3]?
Answer: 0.16 nM

Question: Which remaining at 1 h, 1 µM (Pepsin) does the source give for `CC(=O)NCCCC[C@@H]1NC(=O)[C@H](Cc2c[nH]c3c(C)cccc23)NC(=O)[C@H]([C@@H](C)O)NC(=O)[C@H](CC(N)=O)NC(=O)[C@@H]2CSSC[C@H](NC1=O)C(=O)N[C@@H](Cc1ccc(OCCN(C)C)cc1)C(=O)N[C@@H](Cc1ccc3ccccc3c1)C(=O)N[C@@](C)(CCCCN(C)C)C(=O)N[C@H](C(=O)N[C@@H](CC(N)=O)C(=O)N[C@H](CC(C)C)C(N)=O)CCC(=O)NCCCCC(=O)N2` [compound 54] ([Ava]CNT[Trp(7-Me)]K(Ac)CY(Me2NCH2CH2)[2Nal][αMeLys(Me2)]EN[dL]-NH2; disulfide 2-7; lactam N-11) here?
Answer: 91%

Question: And the IC50 [1]?
Answer: 0.51 nM

Question: And the remaining at 1 h, 1 µM (Pancreatin)?
Answer: 100%

Question: What about the remaining at 2 h, 1 µM (Pancreatin) of the same compound?
Answer: 100%

Question: What about the remaining at 4 h, 1 µM (Pancreatin) of the same compound?
Answer: 90%

Question: And the IC50 [3]?
Answer: 2.59 nM

Question: What does the source list for `CCCCCCCCCCCCCCCC(=O)NCCCC[C@]1(C)NC(=O)[C@H](Cc2ccc3ccccc3c2)NC(=O)[C@H](Cc2ccc(OCCN(C)C)cc2)NC(=O)[C@@H]2CSSC[C@H](NC(=O)CCCCNC(=O)CC[C@@H](C(=O)N[C@@H](CC(N)=O)C(=O)N[C@@H](Cc3cccnc3)C(=O)N(C)CC(N)=O)NC1=O)C(=O)NCCCC[C@H](NC(C)=O)C(=O)N[C@@H](Cc1c[nH]c3c(C)cccc13)C(=O)N[C@@H](CCCCNC(C)=O)C(=O)N2` [compound 67] (Ac-K[Trp(7-Me)]K(Ac)CY(Me2NCH2CH2)[2Nal][αMeK](Palmitoyl)EN[3Pal][Sar]-NH2; linker 1-4-8 via X1)?
Answer: remaining at 1 h, 1 µM (Pepsin): 102%; IC50 [1]: 2.27 nM; remaining at 1 h, 1 µM (Pancreatin): 99%; remaining at 2 h, 1 µM (Pancreatin): 98%; remaining at 4 h, 1 µM (Pancreatin): 98%; IC50 [3]: 22.6 nM

Question: For `Cc1cccc2c(C[C@@H]3NC(=O)[C@H]([C@@H](C)O)NC(=O)[C@H](CC(N)=O)NC(=O)[C@@H]4CSSC[C@H](NC(=O)[C@H](CCC(N)=O)NC3=O)C(=O)N[C@@H](Cc3ccc(OCCN(C)C)cc3)C(=O)N[C@@H](Cc3ccc5ccccc5c3)C(=O)N[C@@](C)(CCCCN(C)C)C(=O)N[C@H](C(=O)N[C@@H](CC(N)=O)C(=O)N[C@@H](Cc3cccnc3)C(=O)N(C)CC(N)=O)CCCCNC(=O)CCC(=O)N4)c[nH]c12` [compound 152] (CNT[Trp(7-Me)]QCY(Me2NCH2CH2)[2Nal][αMeLys(Me2)]KN[3Pal][Sar]-NH2; disulfide 1-6; linker N-10 via Suc), which remaining at 1 h, 1 µM (Pepsin) is on record?
Answer: 99%

Question: And the IC50 [1]?
Answer: 0.38 nM

Question: What about the remaining at 1 h, 1 µM (Pancreatin) of the same compound?
Answer: 100%

Question: What about the remaining at 2 h, 1 µM (Pancreatin) of the same compound?
Answer: 100%

Question: What about the remaining at 4 h, 1 µM (Pancreatin) of the same compound?
Answer: 98%

Question: What about the IC50 [3] of the same compound?
Answer: 0.04 nM

Reference: patent publication US20260258084A1, “New Peptides as Selective IL-23 Receptor Antagonists” (Sanofi, priority 2022, published 2026)
